Assay results as given in patent publication US12540129B2, “KIF18A inhibitors” (AMGEN INC., priority 2019, dated 2026).

These molecules were tested against T1, Recombinant human KIF18A (1-467 His-tagged) protein (Homo sapiens, UniProt Q8NI77) (assay: KIF18A Enzyme Assay: microtubule-stimulated ATPase activity (ADP-Glo)). Details: 30 nM KIF18A, 75 μM ATP.
T1 construct: Recombinant human KIF18A (1-467 His-tagged) protein; His; made in house
T1 sequence (Q8NI77 1-467): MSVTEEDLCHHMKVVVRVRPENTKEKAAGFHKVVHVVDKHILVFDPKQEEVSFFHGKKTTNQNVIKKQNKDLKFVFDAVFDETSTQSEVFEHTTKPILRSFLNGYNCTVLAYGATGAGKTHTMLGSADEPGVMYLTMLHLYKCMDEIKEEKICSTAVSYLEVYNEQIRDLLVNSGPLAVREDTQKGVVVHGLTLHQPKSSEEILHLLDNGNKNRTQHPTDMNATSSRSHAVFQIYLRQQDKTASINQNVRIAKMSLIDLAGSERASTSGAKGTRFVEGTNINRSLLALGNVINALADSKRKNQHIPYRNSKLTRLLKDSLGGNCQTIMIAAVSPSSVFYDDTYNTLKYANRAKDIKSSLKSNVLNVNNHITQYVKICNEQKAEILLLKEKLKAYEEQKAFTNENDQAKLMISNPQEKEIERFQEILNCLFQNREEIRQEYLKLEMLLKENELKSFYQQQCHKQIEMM
T1 sequence (P02550 whole entry partner): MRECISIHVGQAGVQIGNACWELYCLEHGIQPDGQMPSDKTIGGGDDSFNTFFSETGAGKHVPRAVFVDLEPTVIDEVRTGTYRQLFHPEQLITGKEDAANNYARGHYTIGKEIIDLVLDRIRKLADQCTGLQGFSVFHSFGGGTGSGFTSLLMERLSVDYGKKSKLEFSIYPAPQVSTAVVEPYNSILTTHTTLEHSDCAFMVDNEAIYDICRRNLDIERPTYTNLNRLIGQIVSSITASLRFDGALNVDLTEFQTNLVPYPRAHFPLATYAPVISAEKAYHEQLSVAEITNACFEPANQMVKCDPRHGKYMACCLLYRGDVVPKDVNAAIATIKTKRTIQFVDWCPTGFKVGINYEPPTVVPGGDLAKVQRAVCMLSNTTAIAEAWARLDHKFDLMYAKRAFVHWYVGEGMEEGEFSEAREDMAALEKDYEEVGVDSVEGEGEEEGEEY
T1 sequence (P02554 whole entry partner): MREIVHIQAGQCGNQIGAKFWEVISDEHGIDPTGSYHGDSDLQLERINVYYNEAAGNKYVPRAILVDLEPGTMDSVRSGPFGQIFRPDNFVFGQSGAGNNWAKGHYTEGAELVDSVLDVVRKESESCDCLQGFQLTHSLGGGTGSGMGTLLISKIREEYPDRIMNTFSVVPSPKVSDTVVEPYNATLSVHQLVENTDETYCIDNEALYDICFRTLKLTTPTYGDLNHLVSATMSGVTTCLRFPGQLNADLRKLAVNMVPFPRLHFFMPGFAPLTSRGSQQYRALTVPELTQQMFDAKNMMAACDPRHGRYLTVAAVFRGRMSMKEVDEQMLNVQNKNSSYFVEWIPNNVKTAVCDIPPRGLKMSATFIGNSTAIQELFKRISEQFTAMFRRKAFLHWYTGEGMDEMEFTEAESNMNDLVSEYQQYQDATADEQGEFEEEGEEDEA
Type: biochemical
Source text: KIF18A Enzyme Assay: Microtubule-stimulated ATPase activity assay is used to measure KIF18A enzyme activity after treatment with compound. Compounds were 2-fold serially diluted in DMSO (Sigma Inc) over 22-point concentration range. Recombinant human KIF18A (1-467 His-tagged) protein was expressed using a baculovirus system and purified by affinity chromatography by Amgen Inc. Concentrations of KIF18A protein, microtubules (MT), and ATP in the reaction were optimized for standardized homogenous enzyme assay using ADP-Glorm Kinase/ATPase Assay Kit (Promega Inc). The assay measures ADP formed from the ATPase reaction. […] Read luminescence using EnVision microplate reader with ultra-luminescence module (Perkin Elmer Inc). Concentration-response curve-fitting and IC50 determination was performed using Genedata Screener Software (Standard 15.0.1, Genedata Inc) with a four-parameter logistic regression fit model.
Table A provides data for compounds exemplified in the present application and priority document thereof, as representative compounds of the present invention, as follows: chemical name (as named by either ACD software or ChemDraw (Professional 15.0)) and biological data (IC50 in μM). Ex. # refers to Example No.
`O=C(Nc1cccc(S(=O)(=O)NC2CC2)c1)c1cccnc1N1CCC2(CC1)CC2` [Example 101, N-(3-(N-cyclopropylsulfamoyl)phenyl)-2-(6-azaspiro[2.5]octan-6-yl)nicotinamide] showed an IC50 of 517 nM. For `O=C(Nc1cccc(S(=O)(=O)NC2CCC2)c1)c1cccnc1N1CCC2(CC1)CC2` [Example 101-1, N-(3-(N-cyclobutylsulfamoyl)phenyl)-2-(6-azaspiro[2.5]octan-6-yl)nicotinamide], the IC50 was 323 nM. Molecule `CN(C1CCC1)S(=O)(=O)c1cccc(NC(=O)c2cccnc2N2CCC3(CC2)CC3)c1` [Example 101-2, N-(3-(N-cyclobutyl-N-methylsulfamoyl)phenyl)-2-(6-azaspiro[2.5]octan-6-yl)nicotinamide] has an IC50 of 610 nM. `CC1(NS(=O)(=O)c2cccc(NC(=O)c3cccnc3N3CCC4(CC3)CC4)c2)CCC1` [Example 101-3, N-(3-(N-(1-methylcyclobutyl)sulfamoyl)phenyl)-2-(6-azaspiro[2.5]octan-6-yl)nicotinamide] was tested, and the IC50 was 189 nM. `O=C(Nc1cccc(S(=O)(=O)NC2CCCCC2)c1)c1cccnc1N1CCC2(CC1)CC2` [Example 101-4, N-(3-(N-cyclohexylsulfamoyl)phenyl)-2-(6-azaspiro[2.5]octan-6-yl)nicotinamide] was tested, and the IC50 was 918 nM. `O=C(Nc1cccc(S(=O)(=O)N2CC(F)(F)C2)c1)c1cccnc1N1CCC2(CC1)CC2` [Example 101-5, N-(3-((3,3-difluoroazetidin-1-yl)sulfonyl)phenyl)-2-(6-azaspiro[2.5]octan-6-yl)nicotinamide] showed an IC50 of 401 nM. `O=C(Nc1cccc(S(=O)(=O)N2CCC(F)(F)C2)c1)c1cccnc1N1CCC2(CC1)CC2` [Example 101-6, N-(3-((3,3-difluoropyrrolidin-1-yl)sulfonyl)phenyl)-2-(6-azaspiro[2.5]octan-6-yl)nicotinamide] showed an IC50 of 581 nM. In the case of `CC1(NS(=O)(=O)c2cccc(NC(=O)c3cccnc3N3CCC4(CC3)CC4)c2)CC1` [Example 101-7, N-(3-(N-(1-methylcyclopropyl)sulfamoyl)phenyl)-2-(6-azaspiro[2.5]octan-6-yl)nicotinamide], the IC50 is reported as 320 nM. In the case of `CC(C)(CF)NS(=O)(=O)c1cccc(NC(=O)c2cccnc2N2CCC3(CC2)CC3)c1` [Example 101-8, N-(3-(N-(1-fluoro-2-methylpropan-2-yl)sulfamoyl)phenyl)-2-(6-azaspiro[2.5]octan-6-yl)nicotinamide], the IC50 is reported as 279 nM. Molecule `O=C(Nc1cccc(S(=O)(=O)NC2CC(F)(F)C2)c1)c1cccnc1N1CCC2(CC1)CC2` [Example 101-9, N-(3-(N-(3,3-difluorocyclobutyl)sulfamoyl)phenyl)-2-(6-azaspiro[2.5]octan-6-yl)nicotinamide] has an IC50 of 474 nM. With `O=C(Nc1cccc(S(=O)(=O)Nc2ccc(F)cc2)c1)c1cccnc1N1CCC2(CC1)CC2` [Example 101-10, N-(3-(N-(4-fluorophenyl)sulfamoyl)phenyl)-2-(6-azaspiro[2.5]octan-6-yl)nicotinamide] the IC50 was 393 nM. In the case of `CC1(C)CCN(c2ccc(C(=O)Nc3cccc(S(=O)(=O)NC(C)(C)C)c3)c(N3CCC4(CC3)CC4)n2)C1` [Example 102-1, N-(3-(N-(tert-butyl)sulfamoyl)phenyl)-6-(3,3-dimethylpyrrolidin-1-yl)-2-(6-azaspiro[2.5]octan-6-yl)nicotinamide], the IC50 is reported as 196 nM. `CC(C)(C)NS(=O)(=O)c1cccc(NC(=O)c2ccc(N3CCC(F)(F)C3)nc2N2CCC3(CC2)CC3)c1` [Example 102-2, N-(3-(N-(tert-butyl)sulfamoyl)phenyl)-6-(3,3-difluoropyrrolidin-1-yl)-2-(6-azaspiro[2.5]octan-6-yl)nicotinamide] gave an IC50 of 302 nM. With `CC(C)(C)NS(=O)(=O)c1cccc(NC(=O)c2ccc(N3CCCC3(C)C)nc2N2CCC3(CC2)CC3)c1` [Example 102-3, N-(3-(N-(tert-butyl)sulfamoyl)phenyl)-6-(2,2-dimethylpyrrolidin-1-yl)-2-(6-azaspiro[2.5]octan-6-yl)nicotinamide] the IC50 was 342 nM.
